Experimental data taken from patent US9981916B2 (Genentech, Inc., priority 2013, dated 2018).

Biological target: T1, RORc ligand binding domain (Homo sapiens, UniProt P51449)
T1 construct: host or cells: E. coli
T1 sequence (P51449 269-508 limits assumed): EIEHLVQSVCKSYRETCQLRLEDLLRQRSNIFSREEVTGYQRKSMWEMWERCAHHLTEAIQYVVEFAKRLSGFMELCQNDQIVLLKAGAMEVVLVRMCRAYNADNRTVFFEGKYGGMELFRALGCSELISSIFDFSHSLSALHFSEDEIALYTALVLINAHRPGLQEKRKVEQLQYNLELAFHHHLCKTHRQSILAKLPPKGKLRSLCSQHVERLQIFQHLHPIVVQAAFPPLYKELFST
Test: In vitro RORc ligand binding assay (25-[3H]hydroxycholesterol displacement, filter binding)
Conditions: 6 nM 25-[3H]hydroxycholesterol, 0.6 ug/mL RORc receptor, 3 h at 25° C.
Outline: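 Compounds in 5% DMSO, either dose-response or screened at 1 and 10 uM, competed with 6 nM 25-[3H]hydroxycholesterol for 0.6 ug/mL RORc over 3 h at 25° C (HEPES pH 7.4, NaCl, MgCl2, DTT, BSA buffer). Bound tracer was filter-harvested and counted; nonspecific binding came from 1 uM 25-hydroxycholesterol.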

Cn1nccc1[C@@]12CC[C@@H](c3cc(-c4c(F)cccc4F)nnc31)C2(C)C [Example 275, (5R,8S)-3-(2,6-difluorophenyl)-9,9-dimethyl-8-(1-methyl-1H-pyrazol-5-yl)-5,6,7,8-tetrahydro-5,8-methanocinnoline]
IC50: 146 nM

CC1(C)[C@H]2CC[C@]1(c1ccnn1CCC#N)c1nnc(-c3c(F)cccc3F)cc12 [Example 276, 3-(5-((5R,8S)-3-(2,6-difluorophenyl)-9,9-dimethyl-5,6,7,8-tetrahydro-5,8-methanocinnolin-8-yl)-1H-pyrazol-1-yl)propanenitrile]
IC50: 466 nM

CCOC(=O)N(CC)C[C@@]12CC[C@@H](c3cc(-c4c(F)cccc4F)nnc31)C2(C)C [Example 277, ethyl (((5R,8S)-3-(2,6-difluorophenyl)-9,9-dimethyl-5,6,7,8-tetrahydro-5,8-methanocinnolin-8-yl)methyl)(ethyl) carbamate]
IC50: 5 nM

CCN(C[C@@]12CC[C@@H](c3cc(-c4c(F)cccc4F)nnc31)C2(C)C)C(=O)N(C)C [Example 278, 1-(((5R,8S)-3-(2,6-difluorophenyl)-9,9-dimethyl-5,6,7,8-tetrahydro-5,8-methanocinnolin-8-yl)methyl)-1-ethyl-3,3-dimethylurea]
IC50: 36 nM

CC1(C)[C@H]2CC[C@]1(CN1CCOC1=O)c1nnc(-c3c(F)cccc3F)cc12 [Example 279, 3-(((5R,8S)-3-(2,6-difluorophenyl)-9,9-dimethyl-5,6,7,8-tetrahydro-5,8-methanocinnolin-8-yl)methyl)oxazolidin-2-one]
IC50: 222 nM

CN(C(=O)OC(C)(C)C)[C@]12CC[C@H](c3cc(-c4c(F)cccc4F)nnc31)C2(C)C [Example 280, tert-butyl ((5S,8S)-3-(2,6-difluorophenyl)-9,9-dimethyl-5,6,7,8-tetrahydro-5,8-methanocinnolin-8-yl)(methyl)carbamate]
IC50: 2240 nM

CN(C(=O)OC(C)(C)C)[C@@]12CC[C@@H](c3cc(-c4c(F)cccc4F)nnc31)C2(C)C [Example 281, tert-butyl ((5R,8R)-3-(2,6-difluorophenyl)-9,9-dimethyl-5,6,7,8-tetrahydro-5,8-methanocinnolin-8-yl)(methyl)carbamate]
IC50: 218 nM

CC1(C)[C@H]2CC[C@]1(NS(C)(=O)=O)c1nnc(-c3c(F)cccc3F)cc12 [Example 282, N-((5R,8R)-3-(2,6-difluorophenyl)-9,9-dimethyl-5,6,7,8-tetrahydro-5,8-methanocinnolin-8-yl)methanesulfonamide]
IC50: 984 nM

CC1(C)[C@H]2CC[C@]1(CN(CCO)C(N)=O)c1nnc(-c3c(F)cccc3F)cc12 [Example 283, 1-(((5R,8S)-3-(2,6-difluorophenyl)-9,9-dimethyl-5,6,7,8-tetrahydro-5,8-methanocinnolin-8-yl)methyl)-1-(2-hydroxyethyl)urea]
IC50: 226 nM

CC1(C)[C@H]2CC[C@]1(CN1CCCS1(=O)=O)c1nnc(-c3c(F)cccc3F)cc12 [Example 284, 2-(((5R,8S)-3-(2,6-difluorophenyl)-9,9-dimethyl-5,6,7,8-tetrahydro-5,8-methanocinnolin-8-yl)methyl)isothiazolidine 1,1-dioxide]
IC50: 856 nM

CCNC(=O)N(C)[C@@]12CC[C@@H](c3cc(-c4c(F)cccc4F)nnc31)C2(C)C [Example 285, 1-((5R,8R)-3-(2,6-difluorophenyl)-9,9-dimethyl-5,6,7,8-tetrahydro-5,8-methanocinnolin-8-yl)-3-ethyl-1-methylurea]
IC50: 2070 nM

CN([C@@]12CC[C@@H](c3cc(-c4c(F)cccc4F)nnc31)C2(C)C)S(C)(=O)=O [Example 286, N-((5R,8R)-3-(2,6-difluorophenyl)-9,9-dimethyl-5,6,7,8-tetrahydro-5,8-methanocinnolin-8-yl)-N-methylmethanesulfonamide]
IC50: 219 nM

CC1(C)[C@H]2CC[C@]1(c1ccn(CCC#N)n1)c1nnc(-c3c(F)cccc3F)cc12 [Example 287]
IC50: 623 nM

CCNC(=O)N(CC)C[C@@]12CC[C@@H](c3cc(-c4c(F)cccc4F)nnc31)C2(C)C [Example 288, 1-(((5R,8S)-3-(2,6-difluorophenyl)-9,9-dimethyl-5,6,7,8-tetrahydro-5,8-methanocinnolin-8-yl)methyl)-1,3-diethylurea]
IC50: 21 nM

CC(=O)N(CCO)C[C@@]12CC[C@@H](c3cc(-c4c(F)cccc4F)nnc31)C2(C)C [Example 289, N-(((5R,8S)-3-(2,6-difluorophenyl)-9,9-dimethyl-5,6,7,8-tetrahydro-5,8-methanocinnolin-8-yl)methyl)-N-(2-hydroxyethyl)acetamide]
IC50: 258 nM

CC(=O)OCCN(C[C@@]12CC[C@@H](c3cc(-c4c(F)cccc4F)nnc31)C2(C)C)C(C)=O [Example 290, 2-(N-(((5R,8S)-3-(2,6-difluorophenyl)-9,9-dimethyl-5,6,7,8-tetrahydro-5,8-methanocinnolin-8-yl)methyl)acetamido)ethyl acetate]
IC50: 121 nM

CC1(C)[C@H]2CC[C@]1(CNCC(F)F)c1nnc(-c3c(F)cccc3F)cc12 [Example 291, N-(((5R,8S)-3-(2,6-difluorophenyl)-9,9-dimethyl-5,6,7,8-tetrahydro-5,8-methanocinnolin-8-yl)methyl)-2,2-difluoroethanamine]
IC50: 149 nM

CCOC(=O)N(CC(F)F)C[C@@]12CC[C@@H](c3cc(-c4c(F)cccc4F)nnc31)C2(C)C [Example 292, ethyl (2,2-difluoroethyl)(((5R,8S)-3-(2,6-difluorophenyl)-9,9-dimethyl-5,6,7,8-tetrahydro-5,8-methanocinnolin-8-yl)methyl)carbamate]
IC50: 7 nM

CCNC(=O)N(CC(F)F)C[C@@]12CC[C@@H](c3cc(-c4c(F)cccc4F)nnc31)C2(C)C [Example 293, 1-(2,2-difluoroethyl)-1-(((5R,8S)-3-(2,6-difluorophenyl)-9,9-dimethyl-5,6,7,8-tetrahydro-5,8-methanocinnolin-8-yl)methyl)-3-ethylurea]
IC50: 42 nM

C[C@@H]1COC(=O)N1C[C@@]12CC[C@@H](c3cc(-c4c(F)cccc4F)nnc31)C2(C)C [Example 294, (R)-3-(((5R,8S)-3-(2,6-difluorophenyl)-9,9-dimethyl-5,6,7,8-tetrahydro-5,8-methanocinnolin-8-yl)methyl)-4-methyloxazolidin-2-one]
IC50: 103 nM

C[C@H]1COC(=O)N1C[C@@]12CC[C@@H](c3cc(-c4c(F)cccc4F)nnc31)C2(C)C [Example 295, (S)-3-(((5R,8S)-3-(2,6-difluorophenyl)-9,9-dimethyl-5,6,7,8-tetrahydro-5,8-methanocinnolin-8-yl)methyl)-4-methyloxazolidin-2-one]
IC50: 1110 nM

CCN(C[C@@]12CC[C@@H](c3cc(-c4c(F)cccc4F)nnc31)C2(C)C)c1nnc(CO)o1 [Example 296, (5-((((5R,8S)-3-(2,6-difluorophenyl)-9,9-dimethyl-5,6,7,8-tetrahydro-5,8-methanocinnolin-8-yl)methyl)(ethyl)amino)-1,3,4-oxadiazol-2-yl)methanol]
IC50: 22 nM

CC1(C)[C@H]2CC[C@]1(CNCCO)c1nnc(-c3c(F)cccc3F)cc12 [Example 297, 2-((((5R,8S)-3-(2,6-difluorophenyl)-9,9-dimethyl-5,6,7,8-tetrahydro-5,8-methanocinnolin-8-yl)methyl)amino)ethanol]
IC50: 2420 nM

CC(=O)NCC(=O)N(CCO)C[C@@]12CC[C@@H](c3cc(-c4c(F)cccc4F)nnc31)C2(C)C [Example 298, 2-acetamido-N-(((5R,8S)-3-(2,6-difluorophenyl)-9,9-dimethyl-5,6,7,8-tetrahydro-5,8-methanocinnolin-8-yl)methyl)-N-(2-hydroxyethyl)acetamide]
IC50: 705 nM

CN(C(=O)OCCO)[C@@]12CC[C@@H](c3cc(-c4c(F)cccc4F)nnc31)C2(C)C [Example 299, 2-hydroxyethyl ((5R,8R)-3-(2,6-difluorophenyl)-9,9-dimethyl-5,6,7,8-tetrahydro-5,8-methanocinnolin-8-yl)(methyl)carbamate]
IC50: 1480 nM

CC(C)(O)[C@@]12CC[C@@H](c3cc(-c4c(F)cccc4F)nnc31)C2(C)C [Example 300, 2-((5R,8R)-3-(2,6-difluorophenyl)-9,9-dimethyl-5,6,7,8-tetrahydro-5,8-methanocinnolin-8-yl)propan-2-ol]
IC50: 28 nM

CCN(C[C@@]12CC[C@@H](c3cc(-c4c(F)cccc4F)nnc31)C2(C)C)c1cccc(=O)[nH]1 [Example 301, 6-((((5R,8S)-3-(2,6-difluorophenyl)-9,9-dimethyl-5,6,7,8-tetrahydro-5,8-methanocinnolin-8-yl)methyl)(ethyl)amino) pyridin-2(1H)-one]
IC50: 12 nM

CCN(C[C@@]12CC[C@@H](c3cc(-c4c(F)cccc4F)nnc31)C2(C)C)c1nccc(=O)[nH]1 [Example 302, 2-((((5R,8S)-3-(2,6-difluorophenyl)-9,9-dimethyl-5,6,7,8-tetrahydro-5,8-methanocinnolin-8-yl)methyl)(ethyl)amino) pyrimidin-4(3H)-one]
IC50: 108 nM

CCN(C[C@@]12CC[C@@H](c3cc(-c4c(F)cccc4F)nnc31)C2(C)C)c1nnc(C(F)(F)F)o1 [Example 303, N-(((5R,8S)-3-(2,6-difluorophenyl)-9,9-dimethyl-5,6,7,8-tetrahydro-5,8-methanocinnolin-8-yl)methyl)-N-ethyl-5-(trifluoromethyl)-1,3,4-oxadiazol-2-amine]
IC50: 10 nM
